# Patent publication US6562464B1, “Utilization of phenylglyoxalic acid esters as photoinitiators” (BASF Aktiengesellschaft, priority 1999, dated 2003)
# Where two headings read alike, the source gives them in different places.
# How the values were obtained:
# Assay type in all cases: physicochemical
# [1] = Weight loss after 3 hours at 130° C.
# Protocol: 12.0 g of pentaerythritol, 42.8 g of phenylglyoxylic acid and 0.27 g of sulfuric acid are suspended in 17.8 g of methylcyclohexane and the suspension is heated under reflux. The water of esterification is removed via a separating vessel, so that the esterification reaction is at an end after 8 hours. Distillation of the methylcyclohexane leaves a solid melt (acid number 25 mg KOH/g). The weight loss after 3 hours at 130° C. is 7.3%.
# 21.4 g of 1,4-butanediol diglycidyl ether (Araldit DY026) are mixed with 30 g of phenylglyoxylic acid in the presence of 0.5 g of tetrabutylammonium bromide. The mixture is cautiously heated to 103° C. and is held at this temperature for 5 hours until the acid number has fallen to 7.2 mg KOH/g. The product is a highly viscous liquid (153.6 Pas). The weight loss after 3 hours at 130° C. is 0.7%.
# 28.84 g of 1,4-bis(hydroxymethyl)cyclohexane, 72.23 g of methyl phenylglyoxylate and 0.82 g of dibutoxydibutyltin are melted over 180° C. in a reaction flask and methanol is distilled off via a column. After virtually all of the theoretical amount of methanol has passed over, the residue is concentrated on a rotary evaporator, the concentrate is digested in ethanol, and the resulting solid is filtered off with suction. The IR and H-NMR spectra correspond to the expected structure. The melting point is 92° C. The weight loss after 3 hours at 130° C. is 0.5%.
# [2] = Solubility in Laromer LR 8987
# Excerpt: Using a box-type coating bar, a glass plate was coated with this formulation so as to form a film having a thickness of 50 μm or 100 μm. This film was subsequently cured in an IST belt exposure unit at 10 m/min under air.
# 4 parts of 4,4′-isopropylidenedicyclohexanol di(phenylglyoxylate) [hydrogenated bisphenol-A-di(phenylglyoxylate)] were insoluble in 96 parts of Laromer LR 8987. Therefore, radiation curing was not possible.
# However, the solubility was sufficient to prepare and cure a film as described above.
# [3] = Solubility in hexanediol diacrylate (HDDA); set-up: key: sol = soluble; insol = insoluble
# Excerpt: a) Solubility in hexanediol diacrylate (HDDA)
# [4] = Solubility in an aliphatic urethane acrylate; conditions: 2%
# Protocol: b) The solubility of 2% each of 1,4-cyclohexanedimethanol di(phenylglyoxylate) and 4,4′-isopropylidenedicyclohexanol di(phenylglyoxylate) in an aliphatic urethane acrylate was also tested.
Compound,weight loss after 3 hours at 130° C. [1] [%],solubility in Laromer LR 8987 ([2]; 4 parts in 96 parts of Laromer LR 8987 (mixture of hexanediol diacrylate and an aliphatic urethane acrylate)),Solubility in hexanediol diacrylate (HDDA) ([3]; 1%),Solubility in hexanediol diacrylate (HDDA) ([3]; 2%),solubility in an aliphatic urethane acrylate [4],solubility in Laromer LR 8987 [2],Solubility in hexanediol diacrylate (HDDA) ([3]; 3%)
"1,4-Butanediol Diglycidyl Ether Diglyoxylate [Example 2]",0.7,,,,,,
"4,4′-isopropylidenedicyclohexanol di(phenylglyoxylate)",,insoluble,sol,in-,insoluble or did not dissolve completely,,
"O=C(OC1CCC(OC(=O)C(=O)c2ccccc2)CC1)C(=O)c1ccccc1 (stereo not shown) [1,4-cyclohexanediol di(phenylglyoxylate)]",,,sol,sol,,did not dissolve completely,in-
"O=CC(=O)OCC(COC(=O)C=O)(COC(=O)C=O)COC(=O)C=O [Example 1, Pentaerythritol Tetraglyoxylate]",7.3,,,,,,
